This test relates to Crimean-Congo hemorrhagic fever virus L protein ovarian tumor domain protease (vOTU). Kind of test: PubChem AID 743499. To be noted: purified CCHFV vOTU, di-Ub K63 fluorescence cleavage, active compounds read high.

36 molecules from PubChem BioAssay AID743499 (The Scripps Research Institute Molecular Screening Center, 2014) can be followed below.

Calls of active or inactive are those of the source. No rule for the calls is given here.

With `Cn1nc(-c2ccccn2)nc2c(=O)n(C)c(=O)nc1-2`, the inhibition (as a rule, the relative decrease from the control value, in per cent) (at 1.16 µM) was 75.7%. As to `COc1cc(Br)c(C(=O)c2nccc3cc(OC)c(OC)cc23)cc1OC`, the inhibition (at 1.13 µM) was 21%. Regarding `CCn1nc(/C=C/c2ccccc2)nc2c(=O)n(C)c(=O)nc1-2`, the inhibition (at 0.49 µM) is 96.1%. For `CCOC(=O)N=Nc1c2ccccc2c2nc3no[nH]c3nc12`, where the note is “at 7.75 µM”, the inhibition was 24.5%. As for `O=C1Cc2ccccc2C(=O)N1`, where the note is “at 0.6 µM”, the inhibition was 39.2%.

With `O=c1[nH]c(Nc2ccccc2)cc2cc(Br)ccc12`, for the setting “at 1.45 µM”, the inhibition was 22%. As to `O=C(NC1=CC(=O)c2ccccc2C1=O)c1ccccc1`, the inhibition (at 12.37 µM) is 33.4%. For the molecule `O=C(COC(=O)c1ccc([N+](=O)[O-])s1)Nc1ccc(F)cc1`, where the note is “at 26.34 µM”, the inhibition was 99.5%.

For `Cc1ccccc1-c1cc2c(nn1)-c1ccccc1C2=O`, the inhibition (at 4.5 µM) was 14.8% (inactive). As for `COC1=C(N)C(=O)c2nc(C)ccc2C1=O`, the inhibition (at 4.98 µM) was 53.1%. `CCc1cc[n+](C2=C(NS(=O)(=O)c3cccs3)C(=O)c3ccccc3C2=O)cc1`: the inhibition (at 14.16 µM) was 50.9%. Take `CC1COCC(C)N1C1=C(Cl)C(=O)c2ccccc2C1=O` (stereo unspecified): the inhibition (at 14.67 µM) was 24.6%.

Take `CC1CCCC(NC(=O)COC(=O)c2ccc([N+](=O)[O-])s2)C1C` (stereo unspecified): the inhibition (at 31.32 µM) is 43.6%.

Take `CN(C1=C(NC(=O)c2ccccc2)C(=O)c2ccccc2C1=O)C1CCS(=O)(=O)C1` (stereo unspecified): the inhibition (at 19.18 µM) was 27.5%.

`NS(=O)(=O)c1ccc(NC2=CC(=O)C(=O)c3ccccc32)cc1`: the inhibition (at 11.51 µM) was 44.4%.

On to `Cc1ccc2c(c1C)-c1c(ccc(C)c1C)C(=O)C2=O`, for which the inhibition (at 18.9 µM) is 55.7%. With `NC1=C(Cl)C(=O)c2ccc(S(N)(=O)=O)cc2C1=O`, the inhibition (at 0.39 µM) is 50.5%. With `COc1cc(NC(=O)COC(=O)c2ccc([N+](=O)[O-])s2)cc(OC)c1OC`, the inhibition (at 21.72 µM) is 82.2%. On to `COC(CNC(=O)c1ccc2c3c(onc13)-c1ccccc1C2=O)OC`, for which the inhibition (at 24.19 µM) is 46%. Consider `Cc1c(Cl)cnc(NC(=O)COC(=O)c2ccc([N+](=O)[O-])s2)c1Cl`, for which the inhibition (at 20.44 µM) is 76.2%. As for `Cc1ccc(N2C(=O)[C@@H]3[C@H](C2=O)C2c4ccccc4C=CN2[C@@H]3C(=O)c2ccco2)cc1` (stereo partly specified), the inhibition (at 5.2 µM) was 31.4%.

With `O=C(/C=C/c1ccc(O)cc1)c1ccc(NC2=C(N3CCCCC3)C(=O)c3ccccc3C2=O)cc1`, the inhibition (at 10.17 µM) is 38.1%. In the case of `O=C(COC(=O)c1ccc([N+](=O)[O-])s1)NCc1ccc(F)cc1`, under “at 40.58 µM”, the inhibition is 70%. In the case of `O=C(NC1=C(NC2CCS(=O)(=O)C2)C(=O)c2ccccc2C1=O)c1ccccc1` (stereo unspecified), the inhibition (at 14.2 µM) was 43.9%. For the molecule `O=C(COC(=O)c1ccc([N+](=O)[O-])s1)Nc1ncc(C(F)(F)F)cc1Cl`, the inhibition (at 27.79 µM) was 68.2%. Regarding `O=C(c1ccco1)[C@@H]1[C@@H]2C(=O)N(c3ccc(Br)cc3)C(=O)[C@@H]2C2c3ccccc3C=CN21` (stereo partly specified), for the setting “at 11.01 µM”, the inhibition is 59.9%. Consider `COc1ccc2noc3c2c1C(=O)c1ccccc1-3`, for which the inhibition (at 6.28 µM) is 27.6%. As for `O=C1Cc2ccccc2C(=O)N1CCc1ccccc1`, the inhibition (at 3.02 µM) was 11.1% (inactive).

With `CC1(C)C=C2C(=NN(c3ccccc3)C(N)=C2C#N)CO1`, the inhibition (at 23.49 µM) is 76.2%.

With `Nc1cc2c(cc1Br)[nH]c(=O)c1ccccc12`, where the note is “at 4.57 µM”, the inhibition is 4.29% (inactive).

On to `O=C(OCc1nnc(-c2ccccc2)o1)c1ccc([N+](=O)[O-])s1`, for which, where the note is “at 26.04 µM”, the inhibition is 99.5%.

Take `O=C1C=C(Nc2ccccc2)c2ccccc2C1=O`: the inhibition (at 15.55 µM) is 89.1%. Consider `O=C1Cc2ccccc2C(=O)N1Cc1ccccc1`, for which the inhibition (at 1.31 µM) is 37.1%.

As to `COc1ccccc1NC(=O)COC(=O)c1ccc([N+](=O)[O-])s1`, the inhibition (at 35.07 µM) was 84.1%. `NS(=O)(=O)c1ccc(NC(=O)COC(=O)c2ccc([N+](=O)[O-])s2)cc1`: the inhibition (at 29.01 µM) was 94.1%.

Regarding `Cc1ccc(NC2=CC(=O)C(=O)c3ccccc32)cc1`, for the setting “at 12.24 µM”, the inhibition was 103%.
